Data: patent US6410792B1, “Amide derivatives and methods for using the same as selective neuropeptide Y receptor antagonists” (Bayer Corporation, priority 1997, dated 2002)
Structures can show the parent of a compound that is named as a salt. Where two headings read alike, the source gives them in different places.

Tests used:
Human NPY1 receptor = biological target: T1, Human NPY1 receptor (Homo sapiens, UniProt P25929); test: Human NPY1 receptor binding assay ([125I]PYY, SK-N-MC cells); settings: [125I]PYY, SK-N-MC cells; read-out: hNPYI IC50
T1 construct: host or cells: SK-N-MC cells
T1 sequence (P25929 1-384): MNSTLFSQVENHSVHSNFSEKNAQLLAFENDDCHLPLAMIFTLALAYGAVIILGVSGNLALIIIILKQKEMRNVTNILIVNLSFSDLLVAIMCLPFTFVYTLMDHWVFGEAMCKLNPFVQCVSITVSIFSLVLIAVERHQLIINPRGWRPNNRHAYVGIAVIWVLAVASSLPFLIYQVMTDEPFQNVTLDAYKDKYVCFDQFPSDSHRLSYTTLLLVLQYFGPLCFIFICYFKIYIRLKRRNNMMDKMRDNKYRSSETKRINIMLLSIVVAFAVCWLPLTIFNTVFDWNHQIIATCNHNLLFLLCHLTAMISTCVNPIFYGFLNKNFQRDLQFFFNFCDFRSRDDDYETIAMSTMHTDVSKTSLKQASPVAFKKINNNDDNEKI
Method: A. Human NPY1 Receptor Binding Assay
This is a modification of Gordon et al., (J. Neurochem. 55:506-513, 1990). SK-N-MC cell (ATCC, Rockville, Md.) were plated in 24-well plates. Once confluent, cells were rinsed with Dulbecco's phosphate buffered saline (DPBS). Cells were then preincubated in binding buffer containing serum-free DMEM, 25 mM HEPES (pH 7.3), 0.5% bovine serum albumin (BSA), 0.1% bacitracin and 0.1 mM phenylmethylsulfonylfluoride for 30 minutes at room temperature. Drug dilution and [125I]PYY (˜50 pM: NEN-DuPont) were added to the wells, and the cells were incubated for an additional 3 hours at room temperature, followed by rinsing with ice-cold DPBS. Nonspecific binding was defined with 1 μM NPY. After lysing the cells with 1% Triton X-100, the amount of radioactivity in the lysates was quantitated with a gamma counter.

Y2 receptor = biological target: T2, Y2 receptor (Homo sapiens, UniProt P49146); test: Y2 receptor binding assay ([125I]PYY, membrane protein); settings: [125I]PYY, membrane protein; read-out: hNPY2 IC50
T2 sequence (P49146 1-381): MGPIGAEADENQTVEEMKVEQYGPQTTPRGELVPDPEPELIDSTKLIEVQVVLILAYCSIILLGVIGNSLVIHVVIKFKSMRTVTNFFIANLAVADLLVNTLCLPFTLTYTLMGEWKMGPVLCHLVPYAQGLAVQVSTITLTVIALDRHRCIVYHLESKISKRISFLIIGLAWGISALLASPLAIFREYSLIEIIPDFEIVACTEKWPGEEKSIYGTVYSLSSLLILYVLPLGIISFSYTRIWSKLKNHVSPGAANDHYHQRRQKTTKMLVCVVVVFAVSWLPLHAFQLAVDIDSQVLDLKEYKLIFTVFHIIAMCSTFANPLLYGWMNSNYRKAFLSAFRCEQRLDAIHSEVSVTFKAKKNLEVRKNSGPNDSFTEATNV
How it was run: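 Filtration binding with membrane protein and drug dilution, 2 h at room temperature with mixing, radioactivity counted by gamma or scintillation. Y2: 25 pM [125I]PYY in Krebs-Ringer bicarbonate pH 7.4 with 0.01% BSA, nonspecific by 1 μM NPY. Y4/PP1: 50 pM [125I]hPP in HEPES-buffered saline pH 7.4 with protease inhibitors and 0.3% BSA, nonspecific by 1 μM hPP.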

Human NPY5 receptor = biological target: T3, Human NPY5 receptor (Homo sapiens, UniProt Q15761); test: Human NPY5 receptor binding assay ([125I]PYY, membrane protein)
T3 sequence (Q15761 1-445): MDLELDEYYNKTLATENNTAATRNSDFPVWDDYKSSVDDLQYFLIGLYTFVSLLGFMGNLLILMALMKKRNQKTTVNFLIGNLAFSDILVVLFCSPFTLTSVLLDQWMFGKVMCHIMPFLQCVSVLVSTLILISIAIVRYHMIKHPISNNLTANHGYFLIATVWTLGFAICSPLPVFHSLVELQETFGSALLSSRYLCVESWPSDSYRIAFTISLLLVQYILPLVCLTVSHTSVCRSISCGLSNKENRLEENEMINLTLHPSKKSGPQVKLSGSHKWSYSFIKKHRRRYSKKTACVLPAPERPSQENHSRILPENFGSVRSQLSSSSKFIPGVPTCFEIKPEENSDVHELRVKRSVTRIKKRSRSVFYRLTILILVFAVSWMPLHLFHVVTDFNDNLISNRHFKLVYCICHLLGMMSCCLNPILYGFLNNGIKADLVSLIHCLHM
How it was run: (§1)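 Filter binding with membrane protein and porcine [125I]PYY at 75-100 pM, 2 h at room temperature; nonspecific binding set by 1 μM PYY.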

Rat NPY5 receptor = biological target: T4, Rat NPY5 receptor (Rattus norvegicus, UniProt Q63634); test: Rat NPY5 receptor binding assay ([125I]PYY, membrane protein)
T4 sequence (Q63634 1-445): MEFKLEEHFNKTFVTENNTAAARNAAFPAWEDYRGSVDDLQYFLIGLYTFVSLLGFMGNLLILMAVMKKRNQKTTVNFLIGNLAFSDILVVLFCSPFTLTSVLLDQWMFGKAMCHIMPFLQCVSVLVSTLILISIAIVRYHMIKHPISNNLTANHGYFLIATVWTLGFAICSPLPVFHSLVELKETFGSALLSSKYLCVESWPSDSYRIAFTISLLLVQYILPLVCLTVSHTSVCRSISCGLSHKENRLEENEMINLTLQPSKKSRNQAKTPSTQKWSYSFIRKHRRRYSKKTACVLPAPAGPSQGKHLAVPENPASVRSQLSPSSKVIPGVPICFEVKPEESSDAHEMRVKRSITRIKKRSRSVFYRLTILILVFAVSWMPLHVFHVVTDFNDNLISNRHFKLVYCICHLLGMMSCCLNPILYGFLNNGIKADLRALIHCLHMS
How it was run: as §1

human Y4/PP1 receptor = human Y4/PP1 receptor (Homo sapiens, UniProt P50391); test: Human Y4/PP1 receptor binding assay ([125I]human PP, membrane protein); settings: [125I]human PP, membrane protein; read-out: hNPY4 IC50
Method: B. Human Y2 and Y4/PP1 Receptor Binding Assays
Binding assays were performed on GF/C Millipore 96-well plates pretreated with 0.02% polyethylenimine. The binding buffer for rat Y2 binding is Krebs-Ringer bicarbonate (pH 7.4) containing 0.01% BSA and 0.005% bacitracin. Samples consist of membrane protein, 25 pM [1251]PYY and drug dilution. Nonspecific binding is defined by 1 μM NPY. The binding buffer for human Y4/PP1 binding consists of 137 mM NaCl, 5.4 mM KCl, 0.44 mM KH2PO4, 1.26 mM CaCl2, 0.81 mM MgSO4, 20 mM HEPES, 1 mM dithiothreitol, 0.1% bacitracin, 100 mg/l streptomycin sulfate, 1 mg/l aprotinin, 10 mg/ml soybean trypsin inhibitor and 0.3% BSA, pH 7.4. Samples consist of membrane protein, 50 pM human [1251]human PP (hPP: NEN DuPont, Boston, Mass.) and drug dilution. 1 μM hPP is used to define nonspecific binding.
After a 2 hour incubation at room temperature with constant mixing, the samples are aspirated on a vacuum manifold, and rinsed with ice-cold binding buffer. The amount of radioactivity in each well is quantitated with either gamma counting or liquid scintillation.

[1] = [125I]PYY, read-out: hNPY5 IC50
[2] = [125I]PYY, read-out: rNPY5 IC50

human Y4/PP1 receptor, sequence (P50391 whole entry): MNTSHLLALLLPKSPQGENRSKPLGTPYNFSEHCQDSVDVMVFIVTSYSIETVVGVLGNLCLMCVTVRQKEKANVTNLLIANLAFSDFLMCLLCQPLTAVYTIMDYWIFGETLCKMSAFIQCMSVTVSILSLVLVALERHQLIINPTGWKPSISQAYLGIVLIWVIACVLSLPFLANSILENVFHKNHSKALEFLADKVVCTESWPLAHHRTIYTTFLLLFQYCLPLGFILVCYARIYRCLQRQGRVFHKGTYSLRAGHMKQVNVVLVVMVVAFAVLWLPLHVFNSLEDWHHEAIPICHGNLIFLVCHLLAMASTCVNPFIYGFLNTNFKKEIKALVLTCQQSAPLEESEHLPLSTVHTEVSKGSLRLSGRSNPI

SMILES | IC50 (Human NPY1 receptor) [nM] | IC50 (Y2 receptor) [nM] | IC50 (Human NPY5 receptor; [1]) [nM] | IC50 (Rat NPY5 receptor; [2]) [nM] | IC50 (human Y4/PP1 receptor) [nM] | IC50 (Human NPY5 receptor; hNPY5 IC50, [125I]PYY) [nM] | IC50 (Rat NPY5 receptor; rNPY5 IC50, [125I]PYY) [nM]
O=C(CNCCCn1c(=O)[nH]c2ccccc21)Nc1ccc(-c2ccccc2)cc1 [Compound 277, N-Biphenyl-4-yl-2-[3-(2-oxo-2,3-dihydro-benzoimidazol-1-yl)-propylamino]-acetamide] | > 5000 | > 5000 | 890 | 1600 | > 5000 |  | 
O=C(Nc1ccc(C2CCCCC2)cc1)C(c1ccccc1)N1CCC(n2c(=O)[nH]c3ccccc32)CC1 (centres unmarked) [Compound 313, N-(4-Cyclohexyl-phenyl)-2-[4-(2-oxo-2,3-dihydro-benzoimidazol-1-yl)-piperidin-1-yl]-2-phenyl-acetamide] | > 5000 | > 5000 |  |  | > 5000 | 35 | 20
O=C(CN1CCC(n2c(=O)[nH]c3ccccc32)CC1)Nc1ccccc1-c1ccccc1 [Compound 324, N-Biphenyl-2-yl-2-[4-(2-oxo-2,3-dihydro-benzoimidazol-1-yl)-piperidin-1-yl]-acetamide; hydrochloride] | > 5000 | > 5000 | 390 | 690 | > 5000 |  | 
O=C(CN1CCC(n2c(=O)[nH]c3ccccc32)CC1)Nc1ccc2c(c1)Cc1ccccc1-2 [Compound 325, N-(9H-Fluoren-2-yl)-2-[4-(2-oxo-2,3-dihydro-benzoimidazol-1-yl)-piperidin-1-yl]-acetamide] | > 5000 | > 5000 | 6 | 4 | > 5000 |  | 
CC(C(=O)Nc1ccc(-c2ccccc2)cc1)N1CCC(n2c(=O)[nH]c3ccccc32)CC1 (centres unmarked) [Compound 329, N-Biphenyl-4-yl-2-[4-(2-oxo-2,3-dihydro-benzoimidazol-1-yl)-piperidin-1-yl]-propionamide; hydrochloride] | > 5000 | > 5000 | 20 | 16 | > 5000 |  | 
Nc1cc(S(=O)(=O)c2ccccc2)ccc1NC(=O)CN1CCC(n2c(=O)[nH]c3ccccc32)CC1 [Compound 335, N-(2-Amino-4-benzenesulfonyl-phenyl)-2-[4-(2-oxo-2,3-dihydro-benzoimidazol-1-yl)-piperidin-1-yl]-acetamide, reference compound] | > 5000 | > 5000 | 110 | 98 | > 5000 |  | 
CCN(CC)c1ccc(NC(=O)CN2CCC(n3c(=O)[nH]c4ccccc43)CC2)cc1 [Compound 336, N-(4-Diethylamino-phenyl)-2-[4-(2-oxo-2,3-dihydro-benzoimidazol-1-yl)-piperidin-1-yl]-acetamide, reference compound] | > 5000 | > 5000 | 220 | 205 | > 5000 |  | 
CCCCOc1ccc2ccc(NC(=O)CN3CCC(n4c(=O)[nH]c5ccccc54)CC3)cc2c1 [Compound 343, N-(7-Butoxy-naphthalen-2-yl)-2-[4-(2-oxo-2,3-dihydro-benzoimidazol-1-yl)-piperidin-1-yl]-acetamide, reference compound] | > 5000 | > 5000 | 110 | 45 | > 5000 |  | 

The next lines start with results.

IC50 (Human NPY1 receptor) [nM] | IC50 (Y2 receptor) [nM] | IC50 (Human NPY5 receptor; [1]) [nM] | IC50 (Rat NPY5 receptor; [2]) [nM] | IC50 (human Y4/PP1 receptor) [nM] | SMILES | IC50 (Human NPY5 receptor; hNPY5 IC50, [125I]PYY) [nM] | IC50 (Rat NPY5 receptor; rNPY5 IC50, [125I]PYY) [nM]
> 5000 | > 5000 | 910 | 1200 | > 5000 | CN(C)c1cccc(NC(=O)CN2CCC(n3c(=O)[nH]c4ccccc43)CC2)c1 [Compound 338, reference compound] |  | 
> 5000 | > 5000 | 2700 | 1700 | > 5000 | O=C(CN1CCC(n2c(=O)[nH]c3ccccc32)CC1)Nc1ccc2cn[nH]c2c1 [Compound 344, N-(1H-Indazol-6-yl)-2-[4-(2-oxo-2,3-dihydro-benzoimidazol-1-yl)-piperidin-1-yl]-acetamide, reference compound] |  | 
> 5000 | > 5000 | 143 | 130 | > 5000 | CCOc1ccc(NC(=O)CN2CCC(n3c(=O)[nH]c4ccccc43)CC2)cc1 [Compound 347, N-(4-Ethoxy-phenyl)-2-[4-(2-oxo-2,3-dihydro-benzoimidazol-1-yl)-piperidin-1-yl]-acetamide, reference compound] |  | 
> 5000 | > 5000 | 1200 | > 10000 | > 5000 | O=C(CN1CCC(n2c(=O)[nH]c3ccccc32)CC1)Nc1ccccc1Cl [Compound 348, N-(2-Chloro-phenyl)-2-[4-(2-oxo-2,3-dihydro-benzoimidazol-1-yl)-piperidin-1-yl]-acetamide, reference compound] |  | 
> 5000 | > 5000 | 2300 | 1400 | > 5000 | NC(=O)c1ccc(NC(=O)CN2CCC(n3c(=O)[nH]c4ccccc43)CC2)cc1 [Compound 350, 4-(2-[4-(2-Oxo-2,3-dihydro-benzoimidazol-1-yl)-piperidin-1-yl]-acetylamino)-benzamide, reference compound] |  | 
